How the values were obtained:
[1] = target: FGFR2 (Homo sapiens (Human), UniProt P21802); assay: Biochemical FGFR2 Caliper assay
[2] = system: SNU-16; assay: Cell SNU-16 assay; assay type: cell-based
[3] = Homo sapiens, SNU-16, SNU-16 cells

Sequence of FGFR2 (P21802 22-821): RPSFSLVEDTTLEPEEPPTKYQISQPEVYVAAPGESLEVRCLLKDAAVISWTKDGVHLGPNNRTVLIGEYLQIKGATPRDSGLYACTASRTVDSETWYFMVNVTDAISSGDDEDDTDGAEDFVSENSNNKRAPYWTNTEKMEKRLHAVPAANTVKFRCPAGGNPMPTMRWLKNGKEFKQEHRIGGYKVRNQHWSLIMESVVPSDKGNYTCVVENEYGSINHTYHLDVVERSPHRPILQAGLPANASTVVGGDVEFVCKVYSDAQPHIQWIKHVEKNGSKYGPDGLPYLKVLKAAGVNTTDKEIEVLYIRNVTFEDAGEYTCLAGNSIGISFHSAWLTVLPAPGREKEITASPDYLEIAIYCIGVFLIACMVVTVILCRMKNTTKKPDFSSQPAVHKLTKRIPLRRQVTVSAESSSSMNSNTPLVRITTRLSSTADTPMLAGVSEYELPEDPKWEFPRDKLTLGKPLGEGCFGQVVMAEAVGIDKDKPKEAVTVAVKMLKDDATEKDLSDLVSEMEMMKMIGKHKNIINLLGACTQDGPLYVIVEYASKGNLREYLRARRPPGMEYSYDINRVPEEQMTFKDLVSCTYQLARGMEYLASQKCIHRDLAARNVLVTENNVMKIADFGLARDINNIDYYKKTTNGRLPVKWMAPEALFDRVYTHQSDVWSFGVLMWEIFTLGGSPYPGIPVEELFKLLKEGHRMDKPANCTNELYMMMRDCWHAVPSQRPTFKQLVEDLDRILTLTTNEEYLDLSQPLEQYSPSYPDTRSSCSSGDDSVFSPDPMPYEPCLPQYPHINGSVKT

Row | IC50 [1] [µM] | IC50 [2, 3] [µM] | IC50 ([2]; SNU-16 cells) [µM] | SMILES
1 | 0.25 to 1 | 0.1 to 0.25 | – | C=C(C)C(=O)Nc1ccc(-c2c(C3=CC[C@H](C(=O)N4CCCC45COC5)CC3)c3c(N)ncnc3n2C)c(F)c1 [Example 1012]
2 | < 0.1 | ≤ 0.1 | – | Cc1ccnc(Oc2ccc(-c3c(-c4ccc(NC(=O)/C=C/CN(C)C)cc4)n(C)c4ncnc(N)c34)cc2F)n1 [Example 1013]
3 | < 0.1 | ≤ 0.1 | – | C=C(C)C(=O)Nc1ccc(-c2c(C3=CC[C@H](C(=O)N4CCCC4)OC3)c3c(N)ncnc3n2C)cc1 [Example 1014]
4 | 1 to 100 | 1 to 100 | – | C=C(C)C(=O)Nc1ccc(-c2c(C3=CC[C@@H](C(=O)N4CCCC4)OC3)c3c(N)ncnc3n2C)cc1 [Example 1015]
5 | 1 to 100 | 1 to 100 | – | C=C(C)C(=O)Nc1ccc(-c2c(C3=CC[C@@H](C(=O)N4CCCC4)CC3)c3c(N)ncnc3n2C)c(Cl)c1 [Example 1016]
6 | < 0.1 | ≤ 0.1 | – | C=C(C)C(=O)Nc1ccc(-c2c(C3=CC[C@H](C(=O)N4CCCC4)CC3)c3c(N)ncnc3n2C)c(Cl)c1 [Example 1017]
7 | < 0.1 | ≤ 0.1 | – | C=CC(=O)Nc1cccc(-c2c(C3=CC[C@H](C(=O)N4CCCC4)CC3)c3c(N)ncnc3n2C)c1 [Example 1018]
8 | < 0.1 | ≤ 0.1 | – | C=CC(=O)Nc1cccc(-c2c(C3=CC[C@@H](C(=O)N4CCCC4)CC3)c3c(N)ncnc3n2C)c1 [Example 1019]
9 | 0.1 to 0.25 | ≤ 0.1 | – | C=CC(=O)Nc1ccc(-c2c(-c3ccc(C(=O)NCC4(F)COC4)cc3)c3c(N)ncnc3n2C)cc1 [Example 1020]
10 | < 0.1 | ≤ 0.1 | – | C=C(C)C(=O)Nc1cccc(-c2c(-c3ccc(C(=O)NCC4(F)COC4)cc3)c3c(N)ncnc3n2C)c1 [Example 1021]
11 | 0.25 to 1 | 1 to 100 | – | C=C(C)C(=O)Nc1ccc(-c2c(C3=CC[C@@H](C(=O)NCC4(F)COC4)CC3)c3c(N)ncnc3n2C)cc1 [Example 1022]
12 | 1 to 100 | 1 to 100 | – | C=C(C)C(=O)Nc1ccc(-c2c(C3=CC[C@H](C(=O)NCC4(F)COC4)CC3)c3c(N)ncnc3n2C)cc1 [Example 1023]
13 | 0.25 to 1 | – | 0.25 to 1 | C=C(C)C(=O)Nc1ccc(-c2c(C3=CC[C@](C)(C(=O)N4CCCC4)CC3)c3c(N)ncnc3n2C)cc1 [Example 1024]
14 | 1 to 100 | – | 1 to 100 | C=C(C)C(=O)Nc1ccc(-c2c(C3=CC[C@@](C)(C(=O)N4CCCC4)CC3)c3c(N)ncnc3n2C)cc1 [Example 1025]
15 | 1 to 100 | – | 1 to 100 | C=C(C)C(=O)Nc1ccc(-c2c(C3=CC[C@](C)(C(=O)N4CCCC4)CC3)c3c(N)ncnc3n2C)cc1 [Example 1026]
16 | 1 to 100 | 1 to 100 | – | C=CC(=O)Nc1cccc(-c2c(-c3ccc4c(c3)CCCN4C)c3c(N)ncnc3n2C)c1 [Example 1027]
17 | < 0.1 | ≤ 0.1 | – | C=CC(=O)Nc1cccc(-c2c(-c3ccc(C(=O)NCC4(F)COC4)cc3)c3c(N)ncnc3n2C)c1 [Example 1030]
18 | < 0.1 | 0.25 to 1 | – | C=C(C)C(=O)Nc1ccc(-c2c(C3=CC[C@@H](C(=O)N4CC[C@@H]5C[C@@H]54)CC3)c3c(N)ncnc3n2C)cc1 [Example 1037]
19 | 1 to 100 | 0.25 to 1 | – | C#Cc1ccc(-c2c(-c3ccc(C(=O)N4CCCC4)cc3)c3c(N)ncnc3n2C)cn1 [Example 1040]
20 | 0.1 to 0.25 | ≤ 0.1 | – | Cc1ccnc(Oc2ccc(-c3c(-c4ccc(NC(=O)/C=C/CN(C)C)cc4)n(C)c4ncnc(N)c34)cc2)n1 [Example 1041]

Row | IC50 [1] [µM] | IC50 [2, 3] [µM] | IC50 ([2]; SNU-16 cells) [µM] | SMILES
21 | < 0.1 | ≤ 0.1 | – | C=C(CN(C)C)C(=O)Nc1ccc(-c2c(-c3ccc(C(=O)NCC4(F)COC4)cc3)c3c(N)ncnc3n2C)cc1 [Example 1044]
22 | 1 to 100 | 1 to 100 | – | C=CC(=O)N1CCCc2c1nc(-c1c(-c3ccc(Oc4nccc(C)n4)cc3)c3c(N)ncnc3n1C)n2C [Example 1045]
23 | 1 to 100 | 1 to 100 | – | C=C(C)C(=O)Nc1ccc(-c2c(-c3ccc(C(=O)NCC4CCC4)c(OC)c3)c3c(N)ncnc3n2C)cc1 [Example 1046]
24 | 0.25 to 1 | 0.25 to 1 | – | C=C(C)C(=O)Nc1ccc(-c2c(C3=CCC(S(=O)(=O)C4CCCC4)CC3)c3c(N)ncnc3n2C)cc1 (centres unmarked) [Example 1047]
25 | 0.25 to 1 | 0.1 to 0.25 | – | C=Cc1nc2ccc(-c3c(-c4ccc(Oc5nccc(C)n5)cc4)c4c(N)ncnc4n3C)cc2[nH]1 [Example 1048]
26 | 0.25 to 1 | 0.25 to 1 | – | C=CC(=O)Nc1ccc(-c2c(-c3ccc(Oc4cccc(C)n4)cc3)c3c(N)ncnc3n2C)cc1 [Example 1050]
27 | 1 to 100 | 1 to 100 | – | C#Cc1ncc(-c2ccc(-c3c(-c4ccc(Oc5nccc(C)n5)cc4)c4c(N)ncnc4n3C)cc2)o1 [Example 1052]
28 | 0.1 to 0.25 | 0.25 to 1 | – | C=CC(=O)Nc1ccc(-c2c(-c3ccc(Oc4cccc(C)n4)c(F)c3)c3c(N)ncnc3n2C)cc1 [Example 1053]
29 | < 0.1 | ≤ 0.1 | – | C=CC(=O)Nc1ccc(-c2c(-c3ccc(Oc4nccc(C)n4)cc3)c3c(N)ncnc3n2C)c(Cl)c1 [Example 1054]
30 | < 0.1 | ≤ 0.1 | – | C=C(C)C(=O)Nc1ccc(-c2c(C3=CC[C@@H](C(=O)N4CCC[C@@H]4C4CC4)CC3)c3c(N)ncnc3n2C)cc1 [Example 1055]
31 | 0.25 to 1 | ≤ 0.1 | – | C=C(C)C(=O)Nc1ccc(-c2c(C3=CC[C@@H](C(=O)N4CCC[C@H]4C4CC4)CC3)c3c(N)ncnc3n2C)cc1 [Example 1056]
32 | < 0.1 | ≤ 0.1 | – | C=C(C)C(=O)Nc1ccc(-c2c(-c3ccc(Oc4nccc(C)n4)c(F)c3)c3c(O)ncnc3n2C)cc1 [Example 1057]
33 | 1 to 100 | 1 to 100 | – | C=C(C)C(=O)Nc1ccc(-c2c(C3=CC[C@H](C(=O)N4CCC[C@@H]4C4CC4)CC3)c3c(N)ncnc3n2C)cc1 [Example 1058]
34 | 1 to 100 | 1 to 100 | – | C=C(C)C(=O)Nc1ccc(-c2c(C3=CC[C@H](C(=O)N4CCC[C@H]4C4CC4)CC3)c3c(N)ncnc3n2C)cc1 [Example 1059]
35 | 1 to 100 | 1 to 100 | – | C=C1CCN(c2ccc(-c3c(-c4ccc(Oc5nccc(C)n5)cc4)c4c(N)ncnc4n3C)cc2)C1=O [Example 1060]
36 | < 0.1 | – | ≤ 0.1 | CC1=CCN(c2ccc(-c3c(-c4ccc(Oc5nccc(C)n5)cc4)c4c(N)ncnc4n3C)cc2)C1=O [Example 1061]
37 | 1 to 100 | 1 to 100 | – | C#Cc1ncc(-c2c(-c3ccc(Oc4nccc(C)n4)cc3)c3c(N)ncnc3n2C)c(C)n1 [Example 1062]
38 | < 0.1 | ≤ 0.1 | – | C=Cc1ncc(-c2c(-c3ccc(Oc4nccc(C)n4)cc3)c3c(N)ncnc3n2C)c(C)n1 [Example 1063]
39 | < 0.1 | ≤ 0.1 | – | C=C(C)C(=O)Nc1ccc(-c2c(-c3ccc(Oc4nccc(C)n4)cc3)c3c(N)ncnc3n2C)c(Cl)c1C [Example 1064]
40 | 0.25 to 1 | 0.25 to 1 | – | C=C(C)C(=O)Nc1cc(-c2c(-c3ccc(Oc4nccc(C)n4)cc3)c3c(N)ncnc3n2C)n(C)n1 [Example 1065]

Row | IC50 [1] [µM] | IC50 [2, 3] [µM] | IC50 ([2]; SNU-16 cells) [µM] | SMILES
41 | < 0.1 | ≤ 0.1 | – | C=C(C)C(=O)Nc1cc(C)c(-c2c(-c3ccc(Oc4nccc(C)n4)cc3)c3c(N)ncnc3n2C)cc1F [Example 1066]
42 | < 0.1 | ≤ 0.1 | – | C#Cc1ccc(-c2c(-c3ccc(Oc4nccc(C)n4)cc3)c3c(N)ncnc3n2C)cn1 [Example 1067]
43 | < 0.1 | ≤ 0.1 | – | C=C(C)C(=O)Nc1ccc(-c2c(-c3ccc(Oc4nccc(C)n4)c(F)c3)c3c(C)ncnc3n2C)cc1 [Example 1068]
44 | 0.25 to 1 | 0.25 to 1 | – | C=C(C)C(=O)Nc1cc(Cl)c(-c2c(-c3ccc(Oc4nccc(C)n4)cc3)c3c(N)ncnc3n2C)cc1C [Example 1069]
45 | < 0.1 | ≤ 0.1 | – | CC#Cc1ncc(-c2c(-c3ccc(Oc4nccc(C)n4)cc3)c3c(N)ncnc3n2C)cn1 [Example 1070]
46 | 0.25 to 1 | ≤ 0.1 | – | C=C(C)C(=O)Nc1ccc(-c2c(-c3ccc(Oc4nccc(C)n4)cc3)c3c(N)ncnc3n2C)c(C)c1Cl [Example 1071]
47 | 0.25 to 1 | 0.25 to 1 | – | C=C(C)C(=O)Nc1cnn(C)c1-c1c(-c2ccc(Oc3nccc(C)n3)cc2)c2c(N)ncnc2n1C [Example 1072]
48 | 1 to 100 | 1 to 100 | – | C#Cc1cc(C)c(-c2c(-c3ccc(Oc4nccc(C)n4)cc3)c3c(N)ncnc3n2C)cn1 [Example 1073]
49 | < 0.1 | ≤ 0.1 | – | C=CC(=O)Nc1ccc(-c2c(-c3ccc(C(=O)NC4CCC4)c(OC)c3)c3c(N)ncnc3n2C)cc1 [Example 1074]
50 | < 0.1 | ≤ 0.1 | – | C=C1CCN(c2ccc(-c3c(-c4ccc(Oc5nccc(C)n5)cc4)c4c(N)ncnc4n3C)cn2)C1=O [Example 1077]
51 | < 0.1 | ≤ 0.1 | – | CC1=CCN(c2ccc(-c3c(-c4ccc(Oc5nccc(C)n5)cc4)c4c(N)ncnc4n3C)cn2)C1=O [Example 1078]
52 | < 0.1 | ≤ 0.1 | – | C=C(C)C(=O)Nc1cccc(-c2[nH]c3ncnc(N)c3c2-c2ccc(C(=O)NCC3(F)COC3)cc2)c1 [Example 1079]
53 | 1 to 100 | 1 to 100 | – | C=CC(=O)N1CC=C(c2cccc(-c3c(-c4ccc(Oc5cccc(C)n5)cc4)c4c(N)ncnc4n3C)c2)C1 [Example 1080]
54 | 0.25 to 1 | 0.25 to 1 | – | C#Cc1ncc(-c2c(-c3ccc(Oc4nccc(C)n4)cc3)c3c(N)ncnc3n2C)cc1F [Example 1081]
55 | < 0.1 | ≤ 0.1 | – | C=CC(=O)Nc1ccccc1-c1c(-c2ccc(Oc3cccc(C)n3)cc2)c2c(N)ncnc2n1C [Example 1082]
56 | 0.25 to 1 | 1 to 100 | – | C=CC(=O)Nc1ccc(-c2c(-c3ccc(Oc4nccc(C)n4)c(C)c3)c3c(N)ncnc3n2C)c(C)c1 [Example 1083]
57 | < 0.1 | ≤ 0.1 | – | Cc1ccnc(Oc2ccc(-c3c(-c4ccc(N5C(=O)C=CC5=O)cc4)n(C)c4ncnc(N)c34)cc2)n1 [Example 1084]
58 | 1 to 100 | 1 to 100 | – | C#Cc1ccc(-c2c(-c3ccc(Oc4nccc(C)n4)cc3)c3c(N)ncnc3n2C)c(C)n1 [Example 1085]

— patent US11780845B2 (Relay Therapeutics, Inc., priority 2019, dated 2023)
